Experimental data from ChEMBL document CHEMBL5370633, “Anti-cancer Effect of a Planar Catechin Analog through the Decrease in Mitochondrial Membrane Potential” (ACS Med Chem Lett, 2023).
The source made the active and inactive calls. No cut-off for these calls is given here.

Experiments:
[1] = Cytotoxicity against rat RGM1 cells assessed as reduction in viability at 100 to 100 uM after 24 hrs by CCK-8 assay; type: toxicity, cell-based; settings: rgm1, 24 h, dose 100-100 µM
[2] = tested on: RGK1; assay: Antiproliferative activity against rat RGK1 cells assessed as reduction in viability at 100 to 100 uM after 24 hrs by CCK-8 assay; type: functional, cell-based; settings: dose 100-100 µM
[3] = tested on: RGK1; assay: Induction of mitochondrial membrane potential loss in rat RGK1 cells at 200 uM after 24 hrs by MitoTracker Red CMXRos fluorescence microscopic analysis; type: functional, cell-based

CC1(C)O[C@H]2Cc3c(O)cc(O)cc3O[C@@H]2c2cc(O)c(O)cc21
Activity [1]: Toxic | Activity [2]: Active | Activity [3]: Active
